Earlier results as cited in patent US20120065140A1, “Biomarkers for the Diagnosis of Autoimmune Disease” (priority 2010, published 2012).

Question: What does the source list for CN(Cc1cnc2nc(N)nc(N)c2n1)c1ccc(C(=O)N[C@@H](CCC(=O)O)C(=O)O)cc1 [MTX, Methotrexate]?
Answer: onset of action (rheumatoid arthritis): 4-6 weeks; patients having some response (rheumatoid arthritis patients): 70%
